In the NIST ThermoML archive (doi:10.1016/j.tca.2013.05.015):
± gives the expanded uncertainty stated by the source.

Conditions: 101.33 kPa, Liquid; for speed of sound: Sing-around technique in a fixed-path interferometer; for mass density: Vibrating tube method

Structure (SMILES): CCO [ethanol]
- speed of sound (298.15 K): 1149 ± 10 m/s
- mass density (298.15 K): 785.7 ± 2 kg/m3
- speed of sound (303.15 K): 1128 ± 10 m/s
- mass density (303.15 K): 782 ± 2 kg/m3
- speed of sound (308.15 K): 1098 ± 10 m/s
- mass density (308.15 K): 777.7 ± 2 kg/m3
- speed of sound (313.15 K): 1086 ± 10 m/s
- mass density (313.15 K): 773.6 ± 2 kg/m3

Structure (SMILES): CCOC(C)=O [ethyl acetate]
- speed of sound (298.15 K): 1141 ± 10 m/s
- mass density (298.15 K): 894.4 ± 2 kg/m3
- speed of sound (303.15 K): 1118 ± 10 m/s
- mass density (303.15 K): 888.5 ± 2 kg/m3
- speed of sound (308.15 K): 1096 ± 10 m/s
- mass density (308.15 K): 882.7 ± 2 kg/m3
- speed of sound (313.15 K): 1073 ± 10 m/s
- mass density (313.15 K): 876.3 ± 2 kg/m3
